According to patent US12187773B2, “Modified GIP peptide analogues” (Antag Therapeutics ApS, priority 2018, dated 2025):
Read-outs that look alike come from different tables or passages of the source. *1 amine or outer side, *2 acyl side, *3 side chain or, on linkers, in order; H or OH if unused. Where a SMILES comes first, the peptide text is derived from it. Side-chain parts run from the residue outwards. [ ]: non-standard residue; d: D form. The star is where a group is joined. C18 diacid = O=C(O)CCCCCCCCCCCCCCCCC(=O)*; C16 diacid = O=C(O)CCCCCCCCCCCCCCC(=O)*; γGlu = O=C(O)[C@H](CCC(=O)[*:2])N[*:1]; pGlu = O=C1CC[C@@H](C(=O)O)N1; AEEA = NCCOCCOCC(=O)O

Columns and labels:
[1] = target: T1, human GIP receptor (Homo sapiens, UniProt P48546); assay: cAMP accumulation, antagonism (DiscoveRx HitHunter cAMP XS assay); format: cell-based; design: host or cells: COS-7 (transient, calcium phosphate; pCMV-Script vector); settings: for cAMP antagonism, % inhib / GIPR, Antagonism, % inhib: COS-7 cells; for cAMP antagonism, % inhib: % inhibition of Emax; for GIPR, Antagonism, % inhib: Table 3A/3B
T1 sequence (P48546 22-466): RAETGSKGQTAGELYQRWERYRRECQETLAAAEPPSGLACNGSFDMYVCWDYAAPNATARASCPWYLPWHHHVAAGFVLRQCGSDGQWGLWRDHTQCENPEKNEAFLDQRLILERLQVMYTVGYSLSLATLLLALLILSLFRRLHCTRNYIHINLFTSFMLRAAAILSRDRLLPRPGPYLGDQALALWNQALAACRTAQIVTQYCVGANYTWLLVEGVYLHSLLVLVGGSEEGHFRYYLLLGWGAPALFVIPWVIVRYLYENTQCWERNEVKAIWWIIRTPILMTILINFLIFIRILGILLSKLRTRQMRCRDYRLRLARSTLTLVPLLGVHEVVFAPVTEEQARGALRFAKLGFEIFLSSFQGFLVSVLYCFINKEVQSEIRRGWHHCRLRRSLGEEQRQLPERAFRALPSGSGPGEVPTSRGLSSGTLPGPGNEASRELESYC
In short: (§1)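 cAMP accumulation measured by HitHunter cAMP XS in COS-7 cells transiently expressing human GIP receptor, after 30 min in HBS with 1 mM IBMX at 37 °C. Antagonists preincubated 10 min before GIP giving 50-80% of maximum, then 20 min more; agonist mode used 30 min ligand exposure.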

[2] = Elimination half-life (T1/2) estimated in Göttingen minipigs; format: in vivo
Procedure: 2-3 Göttingen minipigs were subcutaneously administered one of the GIP analogues of the present invention (1-10 nmol/kg, total volume 2-6 mL) and blood samples were collected before and up to 432 hours post subcutaneous administration.) from a central venous catheter. The catheter was flushed with saline and heparin between samples. Blood was collected into cold EDTA tubes, centrifuged and plasma was kept at −20° C. pending analyses.
Concentrations of the acylated GIP(3-30)NH2 or GIP(5-30)NH2 analogues in blood samples from Göttingen minipigs were analyzed by RIA. Analogues' immunoreactivity was determined using antiserum Ab95234, Ab95235, Ab95236, a polyclonal in-house antibody raised in rabbits specific for either the mid region of GIP(1-30)NH2 or amidated C-terminus of GIP(3-30)NH2.
In addition to the hormone analysis, blood concentrations of AT374, 380, 382-385, 392-393 were determined by LC/MS performed by Red Glead Discovery AB, Lund, Sweden. The plasma samples were precipitated by addition of 3 parts ethanol followed by thorough mixing. After centrifugation and dilution of the supernatant, the samples were analyzed by LC-MS/MS and compared with a 9-point calibration curve. The calibration curves were prepared in naïve plasma matrix from Göttingen minipigs.

[3] = target: T1, human GIP receptor; assay: cAMP accumulation, agonism (DiscoveRx HitHunter cAMP XS assay); format: cell-based; design: host or cells: COS-7 (transient, calcium phosphate; pCMV-Script vector); settings: Table 1B; DiscoveRx; COS-7 cells
In short: as §1

[4] = cAMP antagonism, nM (IC50), Table 1B, DiscoveRx, transiently transfected COS-7 cells
[5] = Göttingen, minipig, plasma, subcutaneous, Example 1, read-out: T1/2 (converted)
[6] = sc, Table 1B, species not given, unit h, LC/MS in Göttingen minipig plasma for these IDs, subcutaneous 1-10 nmol/kg, read-out: T½ (converted)
[7] = IC50-value (GIPR antagonism), Examples 1 and 2, values of Tables 1B and 2

SMILES	cAMP antagonism, % inhib ([1]; Table 1B, DiscoveRx) [%]	GIPR, Antagonism, % inhib ([1]; DiscoveRx) [%]	IC50 [1, 4] [nM]	half-life [2, 5] [h]	half-life [2, 6] [h]	cAMP agonism, Emax [3]	IC50 [1, 7] [nM]
CC[C@H](C)[C@H](NC(=O)[C@H](CO)NC(=O)[C@H](Cc1ccc(O)cc1)NC(=O)[C@H](CC(=O)O)NC(=O)[C@H](CO)NC(=O)[C@@H](NC(=O)[C@H](Cc1ccccc1)NC(=O)[C@@H](NC(=O)CNC(=O)[C@@H]1CCC(=O)N1)[C@@H](C)O)[C@@H](C)CC)C(=O)N[C@@H](C)C(=O)N[C@@H](CCSC)C(=O)N[C@@H](CC(=O)O)C(=O)N[C@@H](CCCNC(=N)N)C(=O)N[C@H](C(=O)N[C@@H](CCCCNC(=O)COCCOCCNC(=O)COCCOCCNC(=O)COCCOCCNC(=O)CC[C@H](NC(=O)CCCCCCCCCCCCCCCCC(=O)O)C(=O)O)C(=O)N[C@@H](CCC(N)=O)C(=O)N[C@@H](CCC(N)=O)C(=O)N[C@@H](CC(=O)O)C(=O)N[C@@H](Cc1ccccc1)C(=O)N[C@H](C(=O)N[C@@H](CC(N)=O)C(=O)N[C@@H](Cc1c[nH]c2ccccc12)C(=O)N[C@@H](CC(C)C)C(=O)N[C@@H](CC(C)C)C(=O)N[C@@H](C)C(=O)N[C@@H](CCC(N)=O)C(=O)N[C@@H](CCCNC(=N)N)C(N)=O)C(C)C)[C@@H](C)CC [AT382] ([pGlu]GTFISDYSIAMDRIK([AEEA-AEEA-AEEA-γGlu-C18 diacid])QQDFVNWLLAQR-NH2)	100	100.0	2	29	29	No Agonism	–
CC[C@H](C)[C@H](NC(=O)[C@H](CO)NC(=O)[C@H](Cc1ccc(O)cc1)NC(=O)[C@H](CC(=O)O)NC(=O)[C@H](CO)NC(=O)[C@@H](NC(=O)[C@H](Cc1ccccc1)NC(=O)[C@@H](NC(=O)CNC(=O)[C@@H](N)CO)[C@@H](C)O)[C@@H](C)CC)C(=O)N[C@@H](C)C(=O)N[C@@H](CCSC)C(=O)N[C@@H](CC(=O)O)C(=O)N[C@@H](CCCNC(=N)N)C(=O)N[C@H](C(=O)N[C@@H](CCCCNC(=O)COCCOCCNC(=O)COCCOCCNC(=O)COCCOCCNC(=O)CC[C@H](NC(=O)CCCCCCCCCCCCCCC(=O)O)C(=O)O)C(=O)N[C@@H](CCC(N)=O)C(=O)N[C@@H](CCC(N)=O)C(=O)N[C@@H](CC(=O)O)C(=O)N[C@@H](Cc1ccccc1)C(=O)N[C@H](C(=O)N[C@@H](CC(N)=O)C(=O)N[C@@H](Cc1c[nH]c2ccccc12)C(=O)N[C@@H](CC(C)C)C(=O)N[C@@H](CC(C)C)C(=O)N[C@@H](C)C(=O)N[C@@H](CCC(N)=O)C(=O)N[C@@H](CCCNC(=N)N)C(N)=O)C(C)C)[C@@H](C)CC [AT383] (H-SGTFISDYSIAMDRIK([AEEA-AEEA-AEEA-γGlu-C16 diacid])QQDFVNWLLAQR-NH2; N-terminus assumed)	100	100.0	1	–	12	No Agonism	–
CC[C@H](C)[C@H](NC(=O)[C@H](CO)NC(=O)[C@H](Cc1ccc(O)cc1)NC(=O)[C@H](CC(=O)O)NC(=O)[C@H](CO)NC(=O)[C@@H](NC(=O)[C@H](Cc1ccccc1)NC(=O)[C@@H](NC(=O)CNC(=O)[C@@H](N)CO)[C@@H](C)O)[C@@H](C)CC)C(=O)N[C@@H](C)C(=O)N[C@@H](CCSC)C(=O)N[C@@H](CC(=O)O)C(=O)N[C@@H](CCCNC(=N)N)C(=O)N[C@H](C(=O)N[C@@H](CCCCNC(=O)COCCOCCNC(=O)COCCOCCNC(=O)CC[C@H](NC(=O)CCCCCCCCCCCCCCCCC(=O)O)C(=O)O)C(=O)N[C@@H](CCC(N)=O)C(=O)N[C@@H](CCC(N)=O)C(=O)N[C@@H](CC(=O)O)C(=O)N[C@@H](Cc1ccccc1)C(=O)N[C@H](C(=O)N[C@@H](CC(N)=O)C(=O)N[C@@H](Cc1c[nH]c2ccccc12)C(=O)N[C@@H](CC(C)C)C(=O)N[C@@H](CC(C)C)C(=O)N[C@@H](C)C(=O)N[C@@H](CCC(N)=O)C(=O)N[C@@H](CCCNC(=N)N)C(N)=O)C(C)C)[C@@H](C)CC [AT384] (H-SGTFISDYSIAMDRIK([AEEA-AEEA-γGlu-C18 diacid])QQDFVNWLLAQR-NH2; N-terminus assumed)	100	100.0	8	36	36	No Agonism	8
CC[C@H](C)[C@H](NC(=O)[C@H](CO)NC(=O)[C@H](Cc1ccc(O)cc1)NC(=O)[C@H](CC(=O)O)NC(=O)[C@H](CO)NC(=O)[C@@H](NC(=O)[C@H](Cc1ccccc1)NC(=O)[C@@H](NC(=O)CNC(=O)[C@@H](N)CO)[C@@H](C)O)[C@@H](C)CC)C(=O)N[C@@H](C)C(=O)N[C@@H](CCSC)C(=O)N[C@@H](CC(=O)O)C(=O)N[C@@H](CCCNC(=N)N)C(=O)N[C@H](C(=O)N[C@@H](CCCCNC(=O)COCCOCCNC(=O)COCCOCCNC(=O)COCCOCCNC(=O)CC[C@H](NC(=O)CCCCCCCCCCCCCCCCC(=O)O)C(=O)O)C(=O)N[C@@H](CCC(N)=O)C(=O)N[C@@H](CCC(N)=O)C(=O)N[C@@H](CC(=O)O)C(=O)N[C@@H](Cc1ccccc1)C(=O)N[C@H](C(=O)N[C@@H](CC(N)=O)C(=O)N[C@@H](Cc1c[nH]c2ccccc12)C(=O)N[C@@H](CC(C)C)C(=O)N[C@@H](CC(C)C)C(=O)N[C@@H](C)C(=O)N[C@@H](CCC(N)=O)C(=O)N[C@@H](CCCNC(=N)N)C(N)=O)C(C)C)[C@@H](C)CC [AT385] (H-SGTFISDYSIAMDRIK([AEEA-AEEA-AEEA-γGlu-C18 diacid])QQDFVNWLLAQR-NH2; N-terminus assumed)	100	100.0	4	20	20	No Agonism	4
CC[C@H](C)[C@H](NC(=O)[C@H](CO)NC(=O)[C@H](Cc1ccc(O)cc1)NC(=O)[C@H](CC(=O)O)NC(=O)[C@H](CO)NC(=O)[C@@H](NC(=O)[C@H](Cc1ccccc1)NC(=O)[C@@H](NC(=O)CNC(=O)[C@@H](N)CO)[C@@H](C)O)[C@@H](C)CC)C(=O)N[C@@H](C)C(=O)N[C@@H](CCSC)C(=O)N[C@@H](CC(=O)O)C(=O)N[C@@H](CCCNC(=N)N)C(=O)N[C@H](C(=O)N[C@@H](CCCCNC(=O)CCCCCCCCCCCCCCCCC(=O)O)C(=O)N[C@@H](CCC(N)=O)C(=O)N[C@@H](CCC(N)=O)C(=O)N[C@@H](CC(=O)O)C(=O)N[C@@H](Cc1ccccc1)C(=O)N[C@H](C(=O)N[C@@H](CC(N)=O)C(=O)N[C@@H](Cc1c[nH]c2ccccc12)C(=O)N[C@@H](CC(C)C)C(=O)N[C@@H](CC(C)C)C(=O)N[C@@H](C)C(=O)N[C@@H](CCC(N)=O)C(=O)N[C@@H](CCCNC(=N)N)C(N)=O)C(C)C)[C@@H](C)CC [AT393] (H-SGTFISDYSIAMDRIK(C18 diacid)QQDFVNWLLAQR-NH2; N-terminus assumed)	100	100.0	1	25	25	No Agonism	1
